In patent US12398154B2, “Azaquinazoline pan-KRas inhibitors” (Mirati Therapeutics, Inc., priority 2020, dated 2025):

Key:
[1] = tested on: pERK in HCT116 cells; assay: Inhibition of KRas phosphorylation of ERK (Cisbio HTRF pERK assay); settings: Homo sapiens, HCT-116, read-out: Inhibition (HTRF IC50) of KRas-mediated Phosphorylation of ERK, HCT116
[2] = molecular target: KRas WT (Homo sapiens, UniProt P01116); assay: biochemical;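 note: binding to KRas read as TR-FRET displacement after a one-hour room-temperature incubation, IC50 derived from percent-of-control values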
KRas WT, sequence (P01116 1-169 isoform P01116-2): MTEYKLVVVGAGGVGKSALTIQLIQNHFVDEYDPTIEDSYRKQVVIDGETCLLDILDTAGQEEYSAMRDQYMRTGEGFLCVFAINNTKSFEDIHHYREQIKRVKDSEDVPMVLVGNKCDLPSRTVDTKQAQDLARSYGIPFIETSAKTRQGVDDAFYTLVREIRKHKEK
Protocol: (§1) The ability of a compound to bind to KRas was measured using a TR-FRET displacement assay. […] After a 60-minute incubation at room temperature, the reaction was measured using a BMG LABTECH CLARIO star Plus via TR-FRET. […] The POC values were fit to a 4-parameter IC50 equation and the IC50 value reported.

[3] = tested on: pERK in MKN1 cells; assay: Inhibition of KRas phosphorylation of ERK (Cisbio HTRF pERK assay); settings: Homo sapiens, MKN-1, 3 h, read-out: Inhibition (HTRF IC50) of KRas-mediated Phosphorylation of ERK, MKN1
[4] = molecular target: KRas G12R (Homo sapiens, UniProt P01116, G12R); assay: biochemical;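 note: TR-FRET displacement assay of compound binding to KRas, read after one hour at room temperature, potency from a four-parameter fit of percent-of-control values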
KRas G12R, sequence (P01116 1-169 isoform P01116-2 G12R): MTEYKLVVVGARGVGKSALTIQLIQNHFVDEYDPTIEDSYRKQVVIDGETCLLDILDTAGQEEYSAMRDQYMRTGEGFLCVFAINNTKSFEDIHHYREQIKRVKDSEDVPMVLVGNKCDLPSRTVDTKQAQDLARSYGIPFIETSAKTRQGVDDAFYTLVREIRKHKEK
Protocol: as §1

[5] = molecular target: KRas G12V (Homo sapiens, UniProt P01116, G12V); assay: biochemical;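 note: KRas binding measured by TR-FRET displacement at room temperature, IC50 fitted from percent of control values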
KRas G12V, sequence (P01116 1-169 isoform P01116-2 G12V): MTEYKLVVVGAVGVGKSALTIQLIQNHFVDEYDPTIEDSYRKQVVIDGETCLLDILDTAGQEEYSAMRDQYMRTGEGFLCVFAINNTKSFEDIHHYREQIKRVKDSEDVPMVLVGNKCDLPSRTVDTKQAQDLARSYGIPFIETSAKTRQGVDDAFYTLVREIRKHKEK
Protocol: as §1

[6] = molecular target: KRas G12C (Homo sapiens, UniProt P01116, G12C); assay: biochemical;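 note: binding to KRas assessed by TR-FRET displacement after one hour incubation at room temperature, potency fitted from percent-of-control values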
KRas G12C, sequence (P01116 1-169 isoform P01116-2 G12C): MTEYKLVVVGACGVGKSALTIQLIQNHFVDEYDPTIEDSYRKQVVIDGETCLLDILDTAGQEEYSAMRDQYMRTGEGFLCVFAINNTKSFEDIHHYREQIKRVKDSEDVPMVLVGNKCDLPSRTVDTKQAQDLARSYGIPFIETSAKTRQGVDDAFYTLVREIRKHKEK
Protocol: as §1

[7] = tested on: pERK in PSN1 cells; assay: Inhibition of KRas phosphorylation of ERK (Cisbio HTRF pERK assay); settings: Homo sapiens, PSN1, 3 h, read-out: Inhibition (HTRF IC50) of KRas-mediated Phosphorylation of ERK, PSN1
[8] = molecular target: KRas G12D (Homo sapiens, UniProt P01116, G12D); assay: biochemical;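 note: TR-FRET displacement binding assay on KRas, read after a one-hour incubation at room temperature, IC50 fitted from percent-of-control values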
KRas G12D, sequence (P01116 1-169 isoform P01116-2 G12D): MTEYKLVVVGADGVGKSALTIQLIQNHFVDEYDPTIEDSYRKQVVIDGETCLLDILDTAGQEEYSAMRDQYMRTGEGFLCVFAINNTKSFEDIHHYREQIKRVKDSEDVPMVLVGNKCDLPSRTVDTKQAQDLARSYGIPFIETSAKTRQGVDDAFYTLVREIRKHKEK
Protocol: as §1

[9] = tested on: pERK in ASPC1 cells; assay: Inhibition of KRas phosphorylation of ERK (Cisbio HTRF pERK assay); settings: Homo sapiens, ASPC1, read-out: Inhibition (HTRF IC50) of KRas-mediated Phosphorylation of ERK, AsPC-1
[10] = tested on: pERK in H727 cells; assay: as above; settings: Homo sapiens, NCI-H727, read-out: Inhibition (HTRF IC50) of KRas-mediated Phosphorylation of ERK, H727

| Structure (SMILES) | IC50 [1] | IC50 [2] | IC50 [3] | IC50 [4] | IC50 [5] | IC50 [6] | IC50 [7] | IC50 [8] | IC50 [9] | IC50 [10] |
| --- | --- | --- | --- | --- | --- | --- | --- | --- | --- | --- |
| CCc1c(F)ccc2cc(O)cc(-c3ncc4c(N5CCC[C@]6(C5)C[C@@](C)(O)C6)nc(OCC56CCCN5CCC6)nc4c3F)c12 [Example 329, cis-6-(7-(8-ethyl-7-fluoro-3-hydroxynaphthalen-1-yl)-8-fluoro-2-((hexahydro-1H-pyrrolizin-7a-yl)methoxy)pyrido[4,3-d]pyrimidin-4-yl)-2-methyl-6-azaspiro[3.5]nonan-2-ol] | ≥ 20000 nM | 1030 nM | ≥ 10000 nM | 3380 nM | 1780 nM | 2620 nM | ≥ 10000 nM | 6600 nM | ≥ 20000 nM | – |
| CCc1c(F)ccc2cc(O)cc(-c3ncc4c(N5CCCn6nc(C(=O)N(C)C)cc6C5)nc(OCC5(CN(C)C)CC5)nc4c3F)c12 [Example 333, 5-(2-((1-((dimethylamino)methyl)cyclopropyl)methoxy)-7-(8-ethyl-7-fluoro-3-hydroxynaphthalen-1-yl)-8-fluoropyrido[4,3-d]pyrimidin-4-yl)-N,N-dimethyl-5,6,7,8-tetrahydro-4H-pyrazolo[1,5-a][1,4]diazepine-2-carboxamide] | 9190 nM | – | 425 nM | 5 nM | ≤ 2 nM | – | ≥ 10000 nM | ≤ 2 nM | 603 nM | 2110 nM |
| CCc1c(F)ccc2cc(O)cc(-c3ncc4c(N5CCOCC6(C5)NC(=O)NC6=O)nc(OC[C@@]56CCCN5C[C@H](F)C6)nc4c3F)c12 (stereo partly drawn) [Example 337, 10-(7-(8-ethyl-7-fluoro-3-hydroxynaphthalen-1-yl)-8-fluoro-2-(((2R,7aS)-2-fluorohexahydro-1H-pyrrolizin-7a-yl)methoxy)pyrido[4,3-d]pyrimidin-4-yl)-7-oxa-1,3,10-triazaspiro[4.6]undecane-2,4-dione] | 438 nM | – | 49 nM | 5 nM | 3 nM | – | 1840 nM | 3 nM | 514 nM | 395 nM |
| CCc1c(F)ccc2cc(O)cc(-c3ncc4c(N5CCCCC6(C5)NC(=O)NC6=O)nc(OC[C@@]56CCCN5C[C@H](F)C6)nc4c3F)c12 (stereo partly drawn) [Example 338, 7-(7-(8-ethyl-7-fluoro-3-hydroxynaphthalen-1-yl)-8-fluoro-2-(((2R,7aS)-2-fluorotetrahydro-1H-pyrrolizin-7a(5H)-yl)methoxy)pyrido[4,3-d]pyrimidin-4-yl)-1,3,7-triazaspiro[4.6]undecane-2,4-dione] | 487 nM | – | 24 nM | 4 nM | 3 nM | – | 2880 nM | ≤ 2 nM | 695 nM | 377 nM |
| CCc1c(F)ccc2cc(O)cc(-c3ncc4c(N5CCCn6nc(CO)cc6C5)nc(OC[C@@]56CCCN5C[C@H](F)C6)nc4c3F)c12 [Example 341, 5-ethyl-6-fluoro-4-(8-fluoro-2-(((2R,7aS)-2-fluorohexahydro-1H-pyrrolizin-7a-yl)methoxy)-4-(2-(hydroxymethyl)-7,8-dihydro-4H-pyrazolo[1,5-a][1,4]diazepin-5(6H)-yl)pyrido[4,3-d]pyrimidin-7-yl)naphthalen-2-ol] | 1320 nM | – | 86 nM | ≤ 2 nM | 3 nM | – | ≥ 10000 nM | ≤ 2 nM | 472 nM | 1040 nM |
| CCc1c(F)ccc2cc(O)cc(-c3ncc4c(N5CCCC(N6CCCS6(=O)=O)C5)nc(OC[C@@]56CCCN5C[C@H](F)C6)nc4c3F)c12 (stereo partly drawn) [Example 348, 2-(1-(7-(8-ethyl-7-fluoro-3-hydroxynaphthalen-1-yl)-8-fluoro-2-(((2R,7aS)-2-fluorotetrahydro-1H-pyrrolizin-7a(5H)-yl)methoxy)pyrido[4,3-d]pyrimidin-4-yl)piperidin-3-yl)isothiazolidine 1,1-dioxide] | 245 nM | – | 7 nM | ≤ 2 nM | 3 nM | – | ≥ 10000 nM | 6 nM | 275 nM | 273 nM |
| CCc1c(F)ccc2cc(O)cc(-c3ncc4c(NC5CCS(=O)(=O)C5)nc(OC[C@@]56CCCN5C[C@H](F)C6)nc4c3F)c12 (stereo partly drawn) [Example 349, 3-((7-(8-ethyl-7-fluoro-3-hydroxynaphthalen-1-yl)-8-fluoro-2-(((2R,7aS)-2-fluorotetrahydro-1H-pyrrolizin-7a(5H)-yl)methoxy)pyrido[4,3-d]pyrimidin-4-yl)amino)tetrahydrothiophene 1,1-dioxide] | 2250 nM | – | 149 nM | 7 nM | 4 nM | – | ≥ 10000 nM | 20 nM | 475 nM | 1860 nM |
| CCc1c(F)ccc2cc(O)cc(-c3ncc4c(N5CC6CCC(C6)C5)nc(OC[C@@]56CCCN5C[C@H](F)C6)nc4c3F)c12 [Example 350, 4-(4-(3-azabicyclo[3.2.I]octan-3-yl)-8-fluoro-2-(((2R,7aS)-2-fluorohexahydro-1H-pyrrolizin-7a-yl)methoxy)pyrido[4,3-d]pyrimidin-7-yl)-5-ethyl-6-fluoronaphthalen-2-ol] | 797 nM | – | 209 nM | 8 nM | 8 nM | – | ≥ 10000 nM | 30 nM | 241 nM | 334 nM |
| CCc1c(F)ccc2cc(O)cc(-c3ncc4c(N5CCCC6(C5)NC(=O)NC6=O)nc(OCC5(CN(C)C)CC5)nc4c3F)c12 (stereo not shown) [Example 359, 7-(2-((1-((dimethylamino)methyl)cyclopropyl)methoxy)-7-(8-ethyl-7-fluoro-3-hydroxynaphthalen-1-yl)-8-fluoropyrido[4,3-d]pyrimidin-4-yl)-1,3,7-triazaspiro[4.5]decane-2,4-dione] | 576 nM | – | 60 nM | ≤ 2 nM | ≤ 2 nM | – | 4100 nM | ≤ 2 nM | 345 nM | 782 nM |

Continued, values first:

| IC50 [1] | IC50 [2] | IC50 [3] | IC50 [4] | IC50 [5] | IC50 [6] | IC50 [7] | IC50 [8] | IC50 [9] | IC50 [10] | Structure (SMILES) |
| --- | --- | --- | --- | --- | --- | --- | --- | --- | --- | --- |
| ≥ 20000 nM | 26 nM | ≥ 10000 nM | 34 nM | 14 nM | 21 nM | ≥ 10000 nM | 111 nM | ≥ 20000 nM | – | CCc1c(F)ccc2cc(O)cc(-c3ncc4c(NCCN5C(=O)CNC5=O)nc(OC[C@@]56CCCN5C[C@H](F)C6)nc4c3F)c12 [Example 379, 3-(2-((7-(8-ethyl-7-fluoro-3-hydroxynaphthalen-1-yl)-8-fluoro-2-(((2R,7aS)-2-fluorohexahydro-1H-pyrrolizin-7a-yl)methoxy)pyrido[4,3-d]pyrimidin-4-yl)amino)ethyl)imidazolidine-2,4-dione] |
| 3220 nM | 18 nM | 1100 nM | 71 nM | 51 nM | 54 nM | ≥ 10000 nM | 275 nM | ≥ 20000 nM | – | CCc1c(F)ccc2cc(O)cc(-c3ncc4c(N5CCN6C(=O)NCC6C5)nc(OC[C@@]56CCCN5C[C@H](F)C6)nc4c3F)c12 (stereo partly drawn) [Example 380, 7-(7-(8-ethyl-7-fluoro-3-hydroxynaphthalen-1-yl)-8-fluoro-2-(((2R,7aS)-2-fluorohexahydro-1H-pyrrolizin-7a-yl)methoxy)pyrido[4,3-d]pyrimidin-4-yl)hexahydroimidazo[1,5-a]pyrazin-3(2H)-one] |
| 741 nM | 5 nM | 282 nM | 21 nM | 11 nM | 16 nM | ≥ 10000 nM | 23 nM | ≥ 20000 nM | – | CCc1c(F)ccc2cc(O)cc(-c3ncc4c(N5CCN6C(=O)NC(=O)C6C5)nc(OC[C@@]56CCCN5C[C@H](F)C6)nc4c3F)c12 (stereo partly drawn) [Example 381, 7-(7-(8-ethyl-7-fluoro-3-hydroxynaphthalen-1-yl)-8-fluoro-2-(((2R,7aS)-2-fluorohexahydro-1H-pyrrolizin-7a-yl)methoxy)pyrido[4,3-d]pyrimidin-4-yl) tetrahydroimidazo[1,5-a]pyrazine-1,3(2H,5H)-dione] |
| 1460 nM | – | – | ≤ 2 nM | ≤ 2 nM | – | – | ≤ 2 nM | 903 nM | 1000 nM | C#Cc1c(F)ccc2cc(O)cc(-c3ncc4c(N5CCCC6(C5)NC(=O)NC6=O)nc(OC[C@@]56CCCN5C[C@H](F)C6)nc4c3F)c12 (stereo partly drawn) [Example 397, 7-(7-(8-ethynyl-7-fluoro-3-hydroxynaphthalen-1-yl)-8-fluoro-2-(((2R,7aS)-2-fluorohexahydro-1H-pyrrolizin-7a-yl)methoxy)pyrido[4,3-d]pyrimidin-4-yl)-1,3,7-triazaspiro[4.5]decane-2,4-dione] |
